The assay deals with recombinant human SAE enzyme (Homo sapiens (Human), UniProt Q9UBT2). Put plainly: SAE HTRF enzyme assay. The format is biochemical. The settings on record: for inhibition at 0.111 µM: read-out: Percent Inhibition. The procedure: Example 215: SAE HTRF enzyme assay
The SAE enzymatic reaction totals 50 μl and contains 50 mM HEPES Hemisodium (pH 7.5), 0.05% BSA, 5 mM MgCl2, 0.5 μM ATP, 250 μM GSH, 0.01 μM Ubc9-GST, 0.125 μM Sumo-Flag and 0.11 nM recombinant human SAE enzyme. The enzymatic reaction mixture, with and without inhibitor, Is incubated at 24° C. for 105 min in a 384-well plate before termination with […] of Stop/Detection buffer (0.1M HEPES Hemisodium pH 7.5, 0.05% Tween20, 20 mM EDTA, 410 mM KF, 0.53 nM Europium-Cryptate labeled monoclonal anti-Flag M2 Antibody (CisBio International) and 8.125 μg/ml PHYCOLINK goat anti-GST allophycocyanin (XL-APC) antibody (Prozyme)). After incubation for 2 hours at 24° C., quantification of FRET is performed on the Pherostar™ (BMG Labtech). Percentage inhibition values at a single concentration or enzyme inhibition (IC50) values are determined from those curves. One skilled in the art will appreciate that the values generated either as percentage inhibition at a single concentration or IC50 values are subject to experimental variation.
A general note: TR-FRET usually uses a lanthanide donor and a delayed reading to cut background.

Where [1] appears, read: SAE inhibition at compound concentration 0.111 μM.
Where [2] appears, read: SAE inhibition, class symbols, legend in nM.

The structures appear in SMILES notation. A value given as a limit tells only on which side of the number the result lay.

recombinant human SAE enzyme, sequence (Q9UBT2 whole entry): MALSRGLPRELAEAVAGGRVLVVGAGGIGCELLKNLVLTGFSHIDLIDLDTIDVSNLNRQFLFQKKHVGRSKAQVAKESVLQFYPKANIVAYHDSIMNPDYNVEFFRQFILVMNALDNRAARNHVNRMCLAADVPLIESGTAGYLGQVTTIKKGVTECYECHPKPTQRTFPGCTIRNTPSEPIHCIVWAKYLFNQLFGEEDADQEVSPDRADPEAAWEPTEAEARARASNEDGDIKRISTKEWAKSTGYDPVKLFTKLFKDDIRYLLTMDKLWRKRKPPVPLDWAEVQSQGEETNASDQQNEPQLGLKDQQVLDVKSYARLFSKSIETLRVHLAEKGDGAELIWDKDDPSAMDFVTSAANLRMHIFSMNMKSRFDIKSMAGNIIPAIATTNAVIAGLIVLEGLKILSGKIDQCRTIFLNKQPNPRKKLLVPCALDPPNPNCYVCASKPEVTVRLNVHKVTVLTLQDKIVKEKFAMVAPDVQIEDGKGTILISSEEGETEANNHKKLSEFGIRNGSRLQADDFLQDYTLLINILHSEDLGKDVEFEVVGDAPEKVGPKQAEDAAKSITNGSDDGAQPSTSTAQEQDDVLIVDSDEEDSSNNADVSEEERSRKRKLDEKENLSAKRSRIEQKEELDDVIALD
recombinant human SAE enzyme, sequence (Q9UBE0 whole entry partner): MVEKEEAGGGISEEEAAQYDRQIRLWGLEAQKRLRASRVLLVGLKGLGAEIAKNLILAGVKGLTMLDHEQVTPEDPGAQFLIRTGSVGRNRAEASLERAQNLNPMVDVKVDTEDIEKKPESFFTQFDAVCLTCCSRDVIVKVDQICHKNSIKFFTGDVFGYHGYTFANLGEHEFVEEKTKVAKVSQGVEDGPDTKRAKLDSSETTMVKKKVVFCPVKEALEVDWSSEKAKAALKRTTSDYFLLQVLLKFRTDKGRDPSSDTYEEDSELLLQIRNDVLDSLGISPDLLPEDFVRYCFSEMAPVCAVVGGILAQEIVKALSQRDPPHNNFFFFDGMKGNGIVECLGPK

For the compound `COc1ccc2c(n1)[C@H](c1cc(C(=O)c3cncnc3N[C@@H]3C[C@H](COS(N)(=O)=O)[C@@H](O)C3)sc1C)OCC2` (single isomer, unassigned) [I-339a, [(1R,2S,4R)-2-hydroxy-4-{[5-({4-[(8S)-2-methoxy-5,8-dihydro-6H-pyrano[3,4-b]pyridin-8-yl]-5-methyl-2-thienyl}carbonyl)pyrimidin-4-yl]amino}cyclopentyl]methyl sulfamate or [(1R,2S,4R)-2-hydroxy-4-{[5-({4-[(8R)-2-methoxy-5,8-dihydro-6H-pyrano[3,4-b]pyridin-8-yl]-5-methyl-2-thienyl}carbonyl)pyrimidin-4-yl]amino}cyclopentyl]methyl sulfamate], the “Percent Inhibition” value under setting [1] worked out at 99%. For the same compound, the IC50 – broadly, the midpoint of a concentration-inhibition curve – under setting [2] is less than 10 nM.

On to `CO[C@H](c1cccc(Cl)c1)c1cc(C(=O)c2cncnc2N[C@@H]2C[C@H](COS(N)(=O)=O)[C@@H](O)C2)sc1Cl` (single isomer, unassigned) [I-90b, [(1R,2S,4R)-4-{[5-({5-chloro-4-[(R)-(3-chlorophenyl)(methoxy)methyl]-2-thienyl}carbonyl)pyrimidin-4-yl]amino}-2-hydroxycyclopentyl]methyl sulfamate or [(1R,2S,4R)-4-{[5-({5-chloro-4-[(S)-(3-chlorophenyl)(methoxy)methyl]-2-thienyl}carbonyl)pyrimidin-4-yl]amino}-2-hydroxycyclopentyl]methyl sulfamate], for which, for the setting “Concentration 0.111 μM”, the “Percent Inhibition” value is 92. Also, the IC50 (class symbols A/B/C) fell in the range of 10 to 100 nM.

Regarding `Cc1cnn(Cc2cc(C(=O)c3cncnc3N[C@@H]3C[C@H](COS(N)(=O)=O)[C@@H](O)C3)sc2C)c1` [I-78, [(1R,2S,4R)-2-hydroxy-4-{[5-({5-methyl-4-[(4-methyl-1H-pyrazol-1-yl)methyl]-2-thienyl}carbonyl)pyrimidin-4-yl]amino}cyclopentyl]methyl sulfamate], the inhibition (in general, how much of the control response was suppressed) at 0.111 µM (Concentration 0.111 μM) worked out at 98%.

On to `NS(=O)(=O)OC[C@H]1C[C@@H](Nc2ncncc2C(=O)c2cc([C@@H]3OC(=O)c4ccc(Cl)cc43)c(Cl)s2)C[C@@H]1O` (mixture of isomers) [I-327, [(1R,2S,4R)-4-{[5-({5-chloro-4-[(1R)-6-chloro-3-oxo-1,3-dihydro-2-benzofuran-1-yl]-2-thienyl}carbonyl)pyrimidin-4-yl]amino}-2-hydroxycyclopentyl]methyl sulfamate and [(1R,2S,4R)-4-{[5-({5-chloro-4-[(1S)-6-chloro-3-oxo-1,3-dihydro-2-benzofuran-1-yl]-2-thienyl}carbonyl)pyrimidin-4-yl]amino}-2-hydroxycyclopentyl]methyl sulfamate], for which the “Percent Inhibition” value under setting [1] is 51%. Moreover, the IC50 under setting [2] was in the range of 100 to 1000 nM.

On to `Cc1cnn(Cc2csc(C(=O)c3cncnc3N[C@@H]3C[C@H](COS(N)(=O)=O)[C@@H](O)C3)c2)c1` [I-74, [(1R,2S,4R)-2-hydroxy-4-{[5-({4-[(4-methyl-1H-pyrazol-1-yl)methyl]-2-thienyl}carbonyl)pyrimidin-4-yl]amino}cyclopentyl]methyl sulfamate], for which, under “Concentration 0.111 μM”, the inhibition at 0.111 µM is 98%. The concentration for half-maximal inhibition (IC50) (class symbols A/B/C) was less than 10 nM.

As for `Cc1sc(C(=O)c2cncnc2N[C@@H]2C[C@H](COS(N)(=O)=O)[C@@H](O)C2)cc1Cn1cc(Br)cn1` [I-39, [(1R,2S,4R)-4-{[5-({4-[(4-bromo-1H-pyrazol-1-yl)methyl]-5-methyl-2-thienyl}carbonyl)pyrimidin-4-yl]amino}-2-hydroxycyclopentyl]methyl sulfamate], the inhibition at 0.111 µM (Concentration 0.111 μM) is 98%.

On to `NS(=O)(=O)OC[C@H]1C[C@@H](Nc2ncncc2C(=O)c2cc(C3SCCc4ccc(Cl)cc43)cs2)[C@H](O)[C@@H]1O` (single isomer, unassigned) [I-278a, [(1R,2R,3S,4R)-4-{[5-({4-[(1R)-7-chloro-3,4-dihydro-1H-isothiochromen-1-yl]-2-thienyl}carbonyl)pyrimidin-4-yl]amino}-2,3-dihydroxycyclopentyl]methyl sulfamate or [(1R,2R,3S,4R)-4-{[5-({4-[(1S)-7-chloro-3,4-dihydro-1H-isothiochromen-1-yl]-2-thienyl}carbonyl)pyrimidin-4-yl]amino}-2,3-dihydroxycyclopentyl]methyl sulfamate], for which the “Percent Inhibition” value (Concentration 0.111 μM) turned out to be 77. The IC50 (class symbols A/B/C) was 10 to 100 nM.

As to `NS(=O)(=O)OC[C@H]1C[C@@H](Nc2ncncc2C(=O)c2cc(Cl)c([C@H](O)c3cccc(Cl)c3)s2)C[C@@H]1O` (single isomer, unassigned) [I-151a, [(1R,2S,4R)-4-{[5-({4-chloro-5-[(R)-(3-chlorophenyl)(hydroxy)methyl]-2-thienyl}carbonyl)pyrimidin-4-yl]amino}-2-hydroxycyclopentyl]methyl sulfamate or [(1R,2S,4R)-4-{[5-({4-chloro-5-[(S)-(3-chlorophenyl)(hydroxy)methyl]-2-thienyl}carbonyl)pyrimidin-4-yl]amino}-2-hydroxycyclopentyl]methyl sulfamate], where the note is “Concentration 0.111 μM”, the “Percent Inhibition” value is 80. Moreover, under “class symbols A/B/C”, the IC50 is 10 to 100 nM.

Turning to `NS(=O)(=O)OCC1CC(Nc2ncncc2C(=O)c2cc(C(O)c3cccc(Br)c3)cs2)CC1O` (mixture of isomers) [I-17, [(1R,2S,4R)-4-{[5-({4-[(R)-(3-bromophenyl)(hydroxy)methyl]-2-thienyl}carbonyl)pyrimidin-4-yl]amino}-2-hydroxycyclopentyl]methyl sulfamate and [(1R,2S,4R)-4-{[5-({4-[(S)-(3-bromophenyl)(hydroxy)methyl]-2-thienyl}carbonyl)pyrimidin-4-yl]amino}-2-hydroxycyclopentyl]methyl sulfamate], the “Percent Inhibition” value (Concentration 0.111 μM) stood at 99. Further, the IC50 (class symbols A/B/C) was less than 10 nM.

Turning to `Cc1sc(C(=O)c2cncnc2N[C@@H]2C[C@H](COS(N)(=O)=O)[C@@H](O)C2)cc1S(=O)(=O)c1cccc(Cl)c1` [I-181, [(1R,2S,4R)-4-{[5-({4-[(3-chlorophenyl)sulfonyl]-5-methyl-2-thienyl}carbonyl)pyrimidin-4-yl]amino}-2-hydroxycyclopentyl]methyl sulfamate], the inhibition at 0.111 µM (Concentration 0.111 μM) is 82%. Moreover, the concentration for half-maximal inhibition (IC50) (class symbols A/B/C) lay in the range of 10 to 100 nM.

For `NS(=O)(=O)OC[C@H]1C[C@@H](Nc2ncncc2C(=O)c2cc(C3NCCc4ccc(Cl)cc43)c(Cl)s2)C[C@@H]1O` (single isomer, unassigned) [I-255b, [(1R,2S,4R)-4-{[5-({5-chloro-4-[(1R)-7-chloro-1,2,3,4-tetrahydroisoquinolin-1-yl]-2-thienyl}carbonyl)pyrimidin-4-yl]amino}-2-hydroxycyclopentyl]methyl sulfamate or [(1R,2S,4R)-4-{[5-({5-chloro-4-[(1S)-7-chloro-1,2,3,4-tetrahydroisoquinolin-1-yl-2-thienyl}carbonyl)pyrimidin-4-yl]amino}-2-hydroxycyclopentyl]methyl sulfamate], where the note is “Concentration 0.111 μM”, the “Percent Inhibition” value came to 100. Besides, the concentration for half-maximal inhibition (IC50) (class symbols A/B/C) is less than 10 nM.

For the compound `Cc1sc(C(=O)c2cncnc2NC2CC(O)C(COS(N)(=O)=O)C2)cc1C(N)c1cccc(Cl)c1` (mixture of isomers) [I-6, [(1R,2S,4R)-4-{[5-({4-[(R)-amino(3-chlorophenyl)methyl]-5-methyl-2-thienyl}carbonyl)pyrimidin-4-yl]amino}-2-hydroxycyclopentyl]methyl sulfamate and [(1R,2S,4R)-4-{[5-({4-[(S)-amino(3-chlorophenyl)methyl]-5-methyl-2-thienyl}carbonyl)pyrimidin-4-yl]amino}-2-hydroxycyclopentyl]methyl sulfamate], the “Percent Inhibition” value (Concentration 0.111 μM) was 98. The IC50 (class symbols A/B/C) was less than 10 nM.

Consider `NS(=O)(=O)OC[C@H]1C[C@@H](Nc2ncncc2C(=O)c2cc(Cc3cccc(Cl)c3Cl)cs2)C[C@@H]1O` [I-155, {(1R,2S,4R)-4-[(5-{[4-(2,3-dichlorobenzyl)-2-thienyl]carbonyl}pyrimidin-4-yl)amino]-2-hydroxycyclopentyl}methyl sulfamate], for which, for the setting “Concentration 0.111 μM”, the inhibition at 0.111 µM was 92%. Further, the IC50 (class symbols A/B/C) is less than 10 nM.

With `NS(=O)(=O)OC[C@H]1C[C@@H](Nc2ncncc2C(=O)c2cc([C@H](O)c3ccc(Cl)s3)c(Cl)s2)C[C@@H]1O` (mixture of isomers) [I-103, [(1R,2S,4R)-4-{[5-({5-chloro-4-[(S)-(5-chloro-2-thienyl)(hydroxy)methyl]-2-thienyl}carbonyl)pyrimidin-4-yl]amino}-2-hydroxycyclopentyl]methyl sulfamate and [(1R,2S,4R)-4-{[5-({5-chloro-4-[(R)-(5-chloro-2-thienyl)(hydroxy)methyl]-2-thienyl}carbonyl)pyrimidin-4-yl]amino}-2-hydroxycyclopentyl]methyl sulfamate], where the note is “Concentration 0.111 μM”, the “Percent Inhibition” value is 96. The IC50 (class symbols A/B/C) is less than 10 nM.

On to `NS(=O)(=O)OC[C@H]1C[C@@H](Nc2ncncc2C(=O)c2cc(Cc3ccc(Cl)c(Cl)c3)cs2)C[C@@H]1O` [I-104, {(1R,2S,4R)-4-[(5-{[4-(3,4-Dichlorobenzyl)-2-thienyl]carbonyl}pyrimidin-4-yl)amino]-2-hydroxycyclopentyl)methyl sulfamate], for which the inhibition at 0.111 µM (Concentration 0.111 μM) worked out at 97%. In addition, the IC50 (class symbols A/B/C) was less than 10 nM.

(Values after US10780090B2, “Heteroaryl compounds useful as inhibitors of SUMO activating enzyme” (Millennium Pharmaceuticals, Inc., priority 2014, dated 2020).)
